The record followed here is PubChem BioAssay (NCI).

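Protocol summary: plate cells (96-well), add compound at 5 concentrations, incubate 48 h, interpolate endpoints linearly. The concentration for 50% growth inhibition is given as GI50. TGI is the concentration that stops growth completely.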

Test systems include 786-0 renal; A498 renal; HOP-92 NSCLC; K-562 leukemia; KM12 colon; SF-268 CNS; SK-MEL-28 melanoma; SK-OV-3 ovarian; U251 CNS; UACC-62 melanoma.
Common to all, as to assay: NCI anticancer screen, dose series, 48 h

Regarding `CC(C)NC(=O)O/N=C1\CCC2[C@@H]3CC=C4C[C@@H](OC(=O)NC(C)C)CC[C@]4(C)C3CC[C@]12C` (stereo not given in full), the TGI with 786-0 renal is 4.01 µM; with A498 renal, greater than 30.3 µM; with HOP-92 NSCLC, 5.02 µM; in the experiment with K-562 leukemia it was 5.85 µM; in the experiment with KM12 colon it was 3.73 µM; with SF-268 CNS, 3.22 µM. Also, the TGI in the experiment on SK-MEL-28 melanoma came to 3.26 µM; in the experiment with SK-OV-3 ovarian, 13.5 µM; with U251 CNS, 2.8 µM; in the experiment with UACC-62 melanoma, 3.18 µM.

In the case of `N#CSCC(=O)c1ccc(Cl)cc1`, the GI50 was 4.96 µM in the experiment on 786-0 renal; 5.59 µM in the experiment on A498 renal; 6.02 µM in the experiment with HOP-92 NSCLC; 0.974 µM in the experiment with K-562 leukemia; 2.59 µM in the experiment with KM12 colon; 2.58 µM in the experiment with SF-268 CNS. Further, the GI50 was 6.17 µM with SK-MEL-28 melanoma, 4.35 µM with SK-OV-3 ovarian, 3.23 µM in the experiment with U251 CNS and 6.4 µM in the experiment with UACC-62 melanoma. Further, the TGI in the experiment with 786-0 renal is 21.3 µM; in the experiment on A498 renal, 20.9 µM; with HOP-92 NSCLC, 29 µM; with K-562 leukemia, greater than 40.3 µM; in the experiment on KM12 colon it was 7.33 µM; with SF-268 CNS, 8.31 µM. The TGI with SK-MEL-28 melanoma is 19.8 µM; with SK-OV-3 ovarian it was 30.8 µM; in the experiment with U251 CNS it was 16.6 µM; in the experiment with UACC-62 melanoma, 21.5 µM.

For the compound `CCOC(=O)c1c(C(F)(F)F)oc2c1ccc1nc3nonc3nc12`, the TGI with 786-0 renal worked out at 25.3 µM; in the experiment with A498 renal, 30.7 µM; with HOP-92 NSCLC it was 27.3 µM; with K-562 leukemia, 13.9 µM; with KM12 colon, 51.3 µM; in the experiment with SF-268 CNS, 38.6 µM. Besides, the TGI with SK-MEL-28 melanoma is 27.3 µM; in the experiment on SK-OV-3 ovarian, 35.7 µM; in the experiment on U251 CNS, 29.1 µM; with UACC-62 melanoma, 29.1 µM.

`Cc1cc2c(cc1C)[n+]([O-])c(-c1c(Cl)cccc1Cl)c(N)[n+]2[O-]`: the TGI in the experiment on 786-0 renal was greater than 100 µM; in the experiment with A498 renal, 79.9 µM; with HOP-92 NSCLC, greater than 100 µM; with K-562 leukemia it was greater than 100 µM; in the experiment on KM12 colon, greater than 100 µM; in the experiment with SF-268 CNS, greater than 100 µM. The TGI was 89.6 µM in the experiment with SK-MEL-28 melanoma, greater than 100 µM in the experiment on SK-OV-3 ovarian, greater than 100 µM with U251 CNS and greater than 100 µM with UACC-62 melanoma.

As for `CN1CCN(c2ccc3nc4c(nc3c2C(F)(F)F)C(=O)c2ncccc2C4=O)CC1`, the GI50 in the experiment on 786-0 renal is 2.02 µM; in the experiment on A498 renal, 1.94 µM; in the experiment on HOP-92 NSCLC, 2.49 µM; in the experiment with K-562 leukemia it was 1.43 µM; in the experiment on KM12 colon, 2.28 µM; with SF-268 CNS, 1.66 µM. The GI50 in the experiment on SK-MEL-28 melanoma is 1.99 µM; with SK-OV-3 ovarian, 1.98 µM; with U251 CNS, 1.38 µM; with UACC-62 melanoma, 1.05 µM. Also, the TGI with 786-0 renal was 4.9 µM; with A498 renal it was 3.63 µM; in the experiment on HOP-92 NSCLC, 5.65 µM; with K-562 leukemia, 7.75 µM; with KM12 colon, 10.9 µM; in the experiment with SF-268 CNS, 4.13 µM. The TGI in the experiment with SK-MEL-28 melanoma was determined as 4.18 µM; in the experiment with SK-OV-3 ovarian it was 4.98 µM; in the experiment on U251 CNS it was 4.04 µM; in the experiment with UACC-62 melanoma, 2.31 µM.

On to `COc1ccc(-c2cncn2-c2cc(OC)c(OC)c(OC)c2)cc1F`, for which the GI50 was less than 0.0214 µM with 786-0 renal; less than 0.0495 µM in the experiment with A498 renal; 6 µM in the experiment on HOP-92 NSCLC; less than 0.01 µM in the experiment with K-562 leukemia; less than 0.01 µM in the experiment with KM12 colon; 0.0548 µM in the experiment with SF-268 CNS. Moreover, the GI50 in the experiment with SK-MEL-28 melanoma is 0.0359 µM; in the experiment on SK-OV-3 ovarian, less than 0.0486 µM; in the experiment with U251 CNS it was less than 0.0266 µM; in the experiment on UACC-62 melanoma, less than 0.0117 µM. Further, the TGI in the experiment on 786-0 renal was greater than 49.2 µM; in the experiment with A498 renal it was 25 µM; in the experiment with HOP-92 NSCLC, 51.9 µM; in the experiment on K-562 leukemia, greater than 100 µM; in the experiment on KM12 colon, greater than 49.8 µM; with SF-268 CNS, greater than 100 µM. The TGI in the experiment with SK-MEL-28 melanoma was greater than 100 µM; in the experiment with SK-OV-3 ovarian, 57.2 µM; with U251 CNS it was greater than 100 µM; in the experiment on UACC-62 melanoma it was greater than 100 µM.

On to `Nn1c(N=Nc2c(O)[nH]c3ccccc23)n[nH]c1=S`, for which the TGI with 786-0 renal, in the experiment on A498 renal, in the experiment with HOP-92 NSCLC, in the experiment on K-562 leukemia, in the experiment with KM12 colon and with SF-268 CNS was greater than 100 µM each time. The TGI with SK-MEL-28 melanoma, with SK-OV-3 ovarian, in the experiment with U251 CNS and with UACC-62 melanoma was greater than 100 µM throughout.

`Cc1c(N2C(=O)/C(=C\c3ccc(N(C)C)cc3)N=C2c2ccccc2)c(=O)n(-c2ccccc2)n1C`: the GI50 with 786-0 renal is greater than 100 µM; in the experiment on A498 renal it was greater than 64.3 µM; in the experiment on HOP-92 NSCLC, 31.8 µM; in the experiment on K-562 leukemia it was 40.9 µM; with KM12 colon it was 77.8 µM; with SF-268 CNS, greater than 76.9 µM. Moreover, the GI50 in the experiment with SK-MEL-28 melanoma was greater than 100 µM; with SK-OV-3 ovarian it was greater than 100 µM; in the experiment on U251 CNS it was greater than 92.4 µM; with UACC-62 melanoma it was greater than 100 µM. The TGI in the experiment on 786-0 renal, in the experiment with A498 renal, in the experiment with HOP-92 NSCLC, in the experiment with K-562 leukemia, in the experiment on KM12 colon and in the experiment on SF-268 CNS was greater than 100 µM each time. Also, the TGI in the experiment with SK-MEL-28 melanoma, in the experiment on SK-OV-3 ovarian, in the experiment with U251 CNS and with UACC-62 melanoma was greater than 100 µM in each case.

Consider `CSc1ccc(C2=NN(C(=O)c3ccc(N)cc3)C(c3ccc(F)cc3)C2)cc1` (stereo not given), for which the GI50 with 786-0 renal is 13.5 µM; with A498 renal, 12.9 µM; with HOP-92 NSCLC it was 2.36 µM; in the experiment on K-562 leukemia it was 3.69 µM; in the experiment with KM12 colon, 2.03 µM; in the experiment with SF-268 CNS, 3.09 µM. Further, the GI50 in the experiment on SK-MEL-28 melanoma was 18.4 µM; in the experiment on SK-OV-3 ovarian, 16.2 µM; in the experiment with U251 CNS, 3.56 µM; with UACC-62 melanoma, 10.1 µM. The TGI in the experiment on 786-0 renal was determined as 27.1 µM; in the experiment with A498 renal, 27.3 µM; with HOP-92 NSCLC, 17.7 µM; in the experiment on K-562 leukemia it was 11.2 µM; in the experiment with KM12 colon, 4.55 µM; in the experiment with SF-268 CNS, 12.6 µM. Further, the TGI was 34.7 µM in the experiment on SK-MEL-28 melanoma, 31.7 µM with SK-OV-3 ovarian, 12.6 µM in the experiment with U251 CNS and 22.5 µM in the experiment with UACC-62 melanoma.
